Test results from US7544664B2, “Sequences facilitating penetration of a substance of interest” (priority 2003, dated 2009).
Where a SMILES comes first, the peptide text is derived from it. The star is where a group is joined. X3 = CC(=O)O[C@H]1C(=O)[C@@]2(C)[C@H]([C@H](OC(=O)c3ccccc3)[C@]3(O)C[C@H](OC(=O)[C@H](OC(=O)CCCCCN4C(=O)CC(*)C4=O)[C@@H](NC(=O)c4ccccc4)c4ccccc4)C(C)=C1C3(C)C)[C@]1(OC(C)=O)CO[C@@H]1C[C@@H]2O

Experiments:
[1] = test system: OVCAR-3: human ovary carcinoma; assay: cells; assay type: cell-based; details: OVCAR-3 ovary carcinoma, 1 h incubation + 72 h post-incubation
Procedure: OVCAR-3: human ovary carcinoma (origin: ATCC #HTB-161)
(§1) Viability assays were performed. Briefly, cells are seeded in 96-well plates and incubated with increasing concentrations of drugs for 1 hour then cells are rinsed and incubated with fresh medium without drugs for 72 hours. A WST-1 test (from Roche) was performed and IC50 values (drug concentration that inhibits 50% of cell viability) were estimated from sigmoidal regressions.
(§2) We tested the inhibition of in vitro cell proliferation of human carcinoma cells, and we calculated IC50 values=drug concentration that inhibits 50% of cell viability.

[2] = test system: NCI-H1299: human non small cell lung carcinoma; assay: cells; assay type: cell-based; details: H1299 NSCLC, 1 h incubation + 72 h post-incubation
Procedure: NCI-H1299: human non small cell lung carcinoma (NSCLC) (origin: ATCC #CRL-5803)
as §1, §2

[3] = test system: MES-SA/Dx5: human uterine sarcoma, resistant to paclitaxel; details: read-out: IC50 values, 1 h incubation + 72 h post-incubation
Excerpt: MES-SA/Dx5: human uterine sarcoma, resistant to paclitaxel, expressing high P-gp (origin: ATCC #CCL-1977).

[4] = Solubility in water / aqueous solutions
[5] = test system: HCT116 human colorectal carcinoma; assay: In vivo anti-tumor activity, first experiment (DPV15-doxorubicin); parameters: species or system nude mice; details: Table 13, Q2D3×3W
Procedure: (§3) Mice: Athymic (nu/nu) nude mice, female, NMRI-nu (nu/nu)-Nude Tumor model: HCT116 human colorectal carcinoma (ATCC Number: CCl-247) Experiment has been performed on tumor-bearing mice. The HCT116 tumors have been established by intradermal injection of 100 μl of the cell suspension (10^7 cells/0.1 mL) on the right flank of the mouse. […] After complete dissolution a solution of 0.9% NaCl for injection (Cooper) 0.9% was added.

[6] = test system: HCT116 human colorectal carcinoma; assay: In vivo anti-tumor activity, second experiment (DPV15b-doxorubicin); parameters: species or system nude mice; details: Q2D3×3W
Procedure: as §3

[7] = test system: HCT116 human colorectal carcinoma; assay: In vivo anti-tumor activity of DPV7b-doxorubicin conjugate; parameters: species or system Nude mice; details: Table 15, Q2D3×3W
Procedure: Nude mice are injected with 10^7 HCT116 cells (HCT116 human colorectal carcinoma cell line) intradermically in the right flank. Treatments were performed on established solid tumors (tumors size is about 80 to 90 mm^3) at Day 3. Mice were randomized in different groups (equivalent tumors size), 6 mice by group.

HeLa cells = assay: Poly-L-Lys inhibition of the internalization of DPV-PO conjugates; assay type: cell-based; details: inhibition of DPV-PO internalization (25 μg/ml, 4 h) in HeLa cells
Procedure: In order to verify this hypothesis, we tested the inhibition of DPV-PO internalization in HeLa cells in the presence of Poly-L-Lysine in the incubation medium: positively charged poly-L-Lys should bind to the negative charges of the cell surface, and prevent the binding of DPVs.
HeLa cells cultivated on glass labtek slides for 24 hours were pre-incubated with the indicated concentrations of poly-L-Lys for 1 hour at 37° C. Cells were then incubated for 4 hours in the presence of DPV-PO conjugates at 25 μg/ml in cell culture medium containing the same quantity of poly-L-Lys. Internalized PO was quantified after extensive treatment with trypsin to eliminate surface bound material, and subsequent cell lysis. Results are given in picogram PO per 1000 cells.

## CC(=O)O[C@H]1C(=O)[C@@]2(C)[C@H]([C@H](OC(=O)c3ccccc3)[C@]3(O)C[C@H](OC(=O)[C@H](OC(=O)CCCCCN4C(=O)CC(SC[C@H](NC(=O)[C@H](CCCNC(=N)N)NC(=O)[C@H](CO)NC(=O)[C@H](CCC(N)=O)NC(=O)[C@H](CCCNC(=N)N)NC(=O)[C@H](CCC(=O)O)NC(=O)[C@H](CCCNC(=N)N)NC(=O)[C@H](CCCNC(=N)N)NC(=O)[C@H](CC(C)C)NC(=O)[C@H](CCCNC(=N)N)NC(=O)[C@H](CO)NC(=O)[C@H](CCC(N)=O)NC(=O)[C@H](CCCNC(=N)N)NC(=O)[C@H](CCC(=O)O)NC(=O)[C@H](CCCNC(=N)N)NC(=O)[C@H](CCCNC(=N)N)NC(=O)[C@@H](N)CC(C)C)C(=O)O)C4=O)[C@@H](NC(=O)c4ccccc4)c4ccccc4)C(C)=C1C3(C)C)[C@]1(OC(C)=O)CO[C@@H]1C[C@@H]2O (stereo partly shown) [DPV15-E-PTX] (H-LRRERQSRLRRERQSRC(X3)-OH)
[1]
  IC50: 0.37 ± 0.05 µM
[2]
  IC50: 4.3 ± 2.7 µM
[3]
  IC50: 33 ± 5.7 µM
[4]; water
  solubility: ≥ 10000 µg/mL

## COc1cccc2c1C(=O)c1c(O)c3c(c(O)c1C2=O)C[C@@](O)(C(=O)CO)C[C@@H]3O[C@H]1C[C@H](N)[C@H](O)[C@H](C)O1 [Doxorubicin]
[1]; Homo sapiens
  IC50: 7.3 ± 4.2 µM
[2]; Homo sapiens, NCI-H1299
  IC50: 0.62 ± 0.32 µM
[5]; 3.5 μmol/kg i.v.
  Tumor doubling time: 10.20 days
  Tumor growth delay: 21.20 days
[5]; 5 μmol/kg i.v.
  Tumor growth delay: 26.40 days
[5]; 6.5 μmol/kg i.v.
  Tumor doubling time: 22.90 days
  Tumor growth delay: 35.29 days
[6]; 7 μmol/kg i.v.
  mice body weight loss: > 20%
[6]; Table 14, 5 μmol/kg i.v.
  Tumor growth delay: 27.86 days
[6]; Table 14, 6 μmol/kg i.v.
  Tumor growth delay: 29.98 days
[6]; Table 14, 7 μmol/kg i.v.
  Tumor doubling time: 13.38 days
  Tumor growth delay: 35.16 days
[7]; 3.5 μmol/kg i.v.
  Tumor doubling time: 10.2 days
  Tumor growth delay: 21.20 days
[7]; 5 μmol/kg i.v.
  Tumor growth delay: 26.40 days
[7]; 6.5 μmol/kg i.v.
  Tumor doubling time: 22.9 days
  Tumor growth delay: 35.29 days

## CC(=O)O[C@H]1C(=O)[C@@]2(C)[C@H]([C@H](OC(=O)c3ccccc3)[C@]3(O)C[C@H](OC(=O)[C@H](O)[C@@H](NC(=O)c4ccccc4)c4ccccc4)C(C)=C1C3(C)C)[C@]1(OC(C)=O)CO[C@@H]1C[C@@H]2O [Paclitaxel (Hauser), Paclitaxel]
[1]; Homo sapiens
  IC50: 0.04 ± 0.02 µM
[2]; Homo sapiens, NCI-H1299
  IC50: 0.23 ± 0.17 µM
[4]
  Solubility in water / aqueous solutions: not soluble

## Poly-L-Lysine
HeLa cells
  IC50 (concentration at which 50% of the maximum internalization is achieved): around 25 μg/ml
